Reference: patent publication US3988466A, “Prevention of gastric lesions” (priority 1973, dated 1976)

Columns and labels:
[1] = system: gastric secretion in pylorus-ligated rats; assay: Effect of L-glutamine on gastric secretion in pylorus-ligated rats (Experiment 4); assay type: in vivo, male Donryu strain rats; conditions: for Gastric juice volume / Pepsin concentration / Titrable acidity: 7 hours; for Acid output: volume × titrable acidity / 7 hours
Experimental: In this Experiment, 7 groups of male Donryu strain rats are used. After 24 hours of fasting, the pylorus of the animal is ligated in the same manner as described in Experiment 1. Six groups are treated in the same manner as described in Experiment 1 except for the injection of the solution of pontamine sky blue 6BX in saline. A seventh group (normal) is treated twice with 5 ml/kg of 1% carboxymethylcellulose solution.
After 7 hours of pylorus ligation, the animals are killed and the stomach is removed. The gastric juice is collected and the volume is measured. The gastric juice is titrated to pH 7.4 with 0.1N NaOH using an electromatic pH meter. The concentration of pepsin in the gastric juice is also determined according to Anson's hemoglobin method [Anson, M. L., J. Gen. Physiol.

[2] = system: aspirin-induced gastric lesions in pylorus-ligated rats; assay: Effect of various amino acids on aspirin-induced gastric lesions in pylorus-ligated rats (Experiment 3); assay type: in vivo, male Donryu strain rats
[3] = L-glutamine 62.5 mg/kg, aspirin 100 mg/kg
[4] = L-glutamine 125 mg/kg, aspirin 100 mg/kg
[5] = L-glutamine 250 mg/kg, aspirin 100 mg/kg
[6] = L-glutamine 500 mg/kg, aspirin 100 mg/kg
[7] = L-glutamine 1000 mg/kg in presence of aspirin
[8] = L-glutamine 1,000 mg/kg, aspirin 100 mg/kg

NC(=O)CC[C@H](N)C(=O)O [L-glutamine] was tested, and the “acid parameters (in words)” value ([1]; L-glutamine 62.5 mg/kg in presence of aspirin) was “almost the same as those of the control group”, the Gastric juice volume [1, 3] was 12.3 ± 0.5 mL and the Pepsin concentration [1, 3] was 26.3 ± 0.5 mg/mL. It also gave a Titrable acidity [1, 3] of 56.2±3.8 mEq/L, an Acid output [1, 3] of 97.8±6.5 μEq/hr and a Gastric juice volume [1, 4] of 12.1 ± 0.6 mL. For the same molecule, the Pepsin concentration [1, 4] was 25.5 ± 0.8 mg/mL, the Titrable acidity [1, 4] was 88.9±4.8 mEq/L and the Acid output [1, 4] was 154.0±12.1 μEq/hr. The “appearance of gastric juices compared with control group” value ([1]; L-glutamine 250 mg/kg or more, aspirin 100 mg/kg) was “relatively clear”, the Gastric juice volume [1, 5] was 12.5 ± 0.5 mL and the Pepsin concentration [1, 5] was 27.1 ± 0.7 mg/mL. The Titrable acidity [1, 5] was 108.0±4.2 mEq/L, the Acid output [1, 5] was 194.1±13.5 μEq/hr and the “change in acid parameters (in words)” value ([1]; L-glutamine 500 mg/kg in presence of aspirin) was “No significant change”. For the same molecule, the Gastric juice volume [1, 6] was 11.9 ± 0.4 mL, the Pepsin concentration [1, 6] was 25.4 ± 0.7 mg/mL and the Titrable acidity [1, 6] was 127.1±4.6 mEq/L. The Acid output [1, 6] was 215.5±10.3 μEq/hr, the “effect on acid output (in words)” value [1, 7] was “considerably increases the titrable acidity and acid output” and the “effect on titrable acidity (in words)” value [1, 7] was “considerably increases the titrable acidity”. The Gastric juice volume [1, 8] was 12.2 ± 0.3 mL, the Pepsin concentration [1, 8] was 23.6 ± 1.1 mg/mL and the Titrable acidity [1, 8] was 139.4±3.4 mEq/L. For the same molecule, the Acid output [1, 8] was 243.9±8.1 μEq/hr, the “pepsin concentration (in words)” value ([1]; L-glutamine at a wide range of doses) was “maintained at a normal level” and the inhibition in vivo at 750 mg/kg ([2]; Rattus norvegicus, po, read-out: Inhibition) was 87.8%. It also gave a Ulcer index ([2]; amino acid 750 mg/kg oral, aspirin by gastric intubation) of 5.5±2.0 mm.
